Measured values reported in patent publication US20250195491A1 (AEVIS BIO, INC., priority 2022, published 2025).

Legend:
iNOS and COX-2 [1] = assay: iNOS and COX-2 immunoblotting in LPS-stimulated BV-2 cells; type: cell-based, mouse; conditions: BV-2, 30, 10, or 3.33 μM, LPS 1 μg/mL 24 hours, FIG. 6C
Description: (§1) To further confirm the oxidative stress suppression effect, the content of nitrite released due to an inflammatory response and the expression levels of iNOS, which is an enzyme that produces nitric oxide, and COX-2, which is cyclooxygenase-2, were determined in mouse microglial cells (BV-2, ATCC, Manassas, VA, USA).
(§2) To determine the content of nitrite and the protein expression levels of iNOS and COX-2, BV-2 was seeded in a 12-well plate (Corning, MD, USA) at 1.5×10^5 cells/well, and cultured using a DMEM medium (Corning, MD, USA) containing 10% fetal bovine serum (Corning, MD, USA) and 100 U/mL of penicillin/streptomycin (Corning, MD, USA) at 37° C. in a 5% CO2 incubator for one day for stabilization. […] 1 μg/mL of LPS (Sigma, USA) was added to all experimental groups excluding the non-inflammation-induced group and allowed to react at 37° C. in a 5% CO2 incubator for 24 hours.
The cells from which the cell culture medium was removed were disrupted by adding a RIPA buffer containing a protease inhibitor cocktail (Thermo Fisher Scientific), and centrifuged at 14,000 rpm for 15 minutes at 4° C. to obtain a cell extract. Equal amounts of the cell extract were loaded, and proteins were separated through SDS-PAGE and then transferred to a PVDF membrane. […]

SALL4 = SALL4 degradation by immunoblotting in Tera-1 cells; type: cell-based, human; conditions: 0.000128-10 μM, 4 hours, immunoblot, FIG. 4
Text: It has been reported that a cereblon (CRBN)-binding therapeutic such as a thalidomide-based compound can cause severe congenital abnormalities such as forelimb shortening or brachydactyly, which are closely associated with the decomposition of SALL4.
To this end, the Tera-1 cell line (HTB-105), which is a human embryonic carcinoma cell line, was purchased from the American Type Culture Collection (ATCC, Manassas, VA, USA) and used, and then cultured using a DMEM medium (Corning, MD, USA) supplemented with 10% fetal bovine serum (Corning, MD, USA), 100 U/mL of penicillin (Corning, MD, USA), and 100 100 μg/mL streptomycin (Corning, MD, USA) at 37° C. in a 5% CO2 incubator.
The cells were disrupted by adding a RIPA buffer containing a protease inhibitor cocktail (Thermo Fisher Scientific), and centrifuged at 14,000 rpm for 15 minutes at 4° C. to obtain a cell extract. Equal amounts of the cell extract were loaded, and proteins were separated by SDS-PAGE and then transferred to a PVDF membrane. The protein-transferred membrane was blocked using skim milk, incubated with a primary antibody for 3 hours at room temperature, and then incubated with an HRP-conjugated secondary antibody for 1 hour at room temperature. The resulting product was washed with TBS-T three times between steps. […]

iNOS and COX-2 [2] = assay: iNOS and COX-2 immunoblotting in LPS-stimulated RAW264.7 cells; type: cell-based, mouse; conditions: RAW264.7, 3.33, 10, or 30 μM, LPS 60 ng/ml 24 hours, FIG. 6A
Description: To confirm an oxidative stress suppression effect, the expression levels of iNOS and COX-2 were confirmed.
To this end, the RAW264.7 cell line, which is a mouse macrophage cell line, was purchased from the Korea Cell Line Bank (KCLB, Korea) and used, and cultured in a DMEM medium (Corning, MD, USA) supplemented with 10% fetal bovine serum (Corning, MD, USA), 100 U/mL of penicillin (Corning, MD, USA), and 100 100 μg/mL of streptomycin (Corning, MD, USA) at 37° C. in a 5% CO2 incubator.
After 1 hour, the cells were stimulated by treatment with 60 ng/ml of LPS, and further cultured for 24 hours. The cells were disrupted by adding a RIPA buffer containing a protease inhibitor cocktail (Thermo Fisher Scientific) and centrifuged at 14,000 rpm for 15 minutes at 4° C. to obtain a cell extract. Equal amounts of the cell extract were loaded, and proteins were separated through SDS-PAGE and then transferred to a PVDF film. The protein-transferred membrane was blocked using skim milk, incubated with a primary antibody for 3 hours at room temperature, and then incubated with an HRP-conjugated secondary antibody for 1 hour at room temperature.
The resulting product was washed with TBS-T three times between steps. […]

BV-2 cells = assay: Nitrite content in culture medium of LPS-stimulated BV-2 cells (Griess); type: cell-based, mouse; conditions: BV-2, 30, 10, or 3.33 μM, LPS 1 μg/mL 24 hours, FIG. 6B
Description: as §1, §2
The cell culture solution was collected to measure the content of nitrite, and centrifuged at 3,000 rpm for 5 minutes to obtain a supernatant. The concentration of nitrite in the cell culture was measured using a microplate reader (NEO2MALPHAB Synergy Neo-2, BioTek, CA, US) according to the manual of the Griess Reagent System (#G2930, Promega, WI, USA).

Nc1cccc2c1C(=S)N(C1CCC(=O)NC1=O)C2=O (stereo not shown) [3-MP, 3-thiopomalidomide]
expression of oxidative stress-associated proteins (iNOS and COX-2) (iNOS and COX-2 [1]): effectively reduced | decomposition of SALL4 (SALL4): less decomposition of SALL4 than pomalidomide | expression of iNOS and COX-2 (protein) (iNOS and COX-2 [2]): inhibits the expression of iNOS and COX-2 | amount of residual nitrite released by LPS (BV-2 cells): effectively reduced the amount of the residual nitrite released by LPS, compared to pomalidomide
